Test results taken from patent US20150038430A1, “THERAPEUTIC PEPTIDOMIMETIC MACROCYCLES” (AILERON Therapeutics, Inc., priority 2008, published 2015).
Numbered stars: 1 amine (or outer) side, 2 acyl side, 3 side chain; on linkers, the order of the positions; unused ones are H or OH. Bridge positions count the residues as written; N and C are the ends. Square brackets hold non-standard residues; d marks the D form. Peptide text beside a SMILES is read from it. ξ: configuration not given here. ξαMeNle(6-ylidene) = CC(CCCC=[*:3])(N[*:1])C(=O)[*:2]; Nle = CCCC[C@H](N)C(=O)O

Assays:
Bcl-2 = assay: Kd, μM | Bcl-2
Source text: (§1) Table printed on a drawing sheet, Figure 27
Head of the field: Kd, μM | Bcl-2
(§2) First copying reader's note: The last row (ABT-737) is a small-molecule comparator; the three plots above the table are not copied.
Where the first naming reader finds the target: head: Kd, μM | Bcl-2

Mcl-1 = assay: Kd, μM | Mcl-1
Source text: as §1
Head of the field: Kd, μM | Mcl-1
as §2
Where the first naming reader finds the target: head: Kd, μM | Mcl-1

Bcl-xL = Bcl-xL (Homo sapiens, UniProt Q07817); assay: Kd, μM | Bcl-xL
Source text: as §1
Head of the field: Kd, μM | Bcl-xL
Where the first naming reader finds the target: head: Kd, μM | Bcl-xL

RS4;11 = assay type: cell-based, human; conditions: 24 h
Protocol: (§3) Cell viability assays shown in FIGS. 34-52 were performed according to a similar protocol. Cells were split at optimal cell density a day prior to the initiation of the study. The next day, cells were washed twice in serum-free Opti-MEM media and 4000 cells/well were added to each well in a final volume of […] Opti-MEM. For serum-free experiments, macrocycles were diluted from 2 mM stocks (100% DMSO) in sterile water to prepare 400 μM working solutions. A 40 μM solution was then generated by ten-fold dilution in assay buffer. The macrocycle and controls were then serially diluted two-fold in assay buffer in dosing plates to provide concentrations between 1.2 and 40 μM, respectively. For experiments in 2% human serum, macrocycles were diluted from 10 mM stocks (100% DMSO) in sterile water to prepare 1 mM working solutions. A 100 μM solution was generated by ten-fold dilution in assay buffer. The macrocycles and controls were then serially diluted two-fold in assay buffer in dosing plates to provide concentrations between 3 and 100 μM, respectively. 50 μl of each dilution was then added to the appropriate wells of the test plate to achieve final concentrations of the macrocycle between 0.6 to 20 μM (for serum free experiment) or 1.5 to 50 μM (for 2% serum experiment), respectively. Controls included wells without macrocycles containing the same concentration of DMSO as the macrocycle-containing wells, wells containing 0.1% Triton X-100, and wells containing no cells. Plates were incubated for 24 hours at 37° C. in a humidified 5% CO2 atmosphere. At the end of a 24 hr incubation period, a CellTiter-Glo Luminescent Cell Viability Assay was performed according to manufacturer's instructions (Promega, catalog #G7571) and the luminescence was measured using a BIO-TEK synergy HT Plate reader. Values were plotted as percent viable, i.e. as a percentage of the negative control value (derived from cells exposed to DMSO only). All assays were performed in duplicate.
(§4) The following tables summarize the EC50 values (μM) observed with peptidomimetic macrocycles of the invention in various cell lines: […]

MDA-MB231-Met = assay type: cell-based, human; conditions: 24 h
Protocol: as §3, §4

SEMK2 = assay type: cell-based, human; conditions: 24 h
Protocol: as §3, §4

NCI-H82 (SCLC-MCL1+) = assay type: cell-based, human; conditions: 24 h
Protocol: as §3, §4

Raji = assay type: cell-based, human; conditions: 24 h
Protocol: as §3, §4

Molt-4 = assay type: cell-based, human; conditions: 24 h
Protocol: as §3, §4

Jurkat = assay type: cell-based, human; conditions: 24 h
Protocol: as §3, §4

OVCAR8 = assay type: cell-based, human; conditions: 24 h
Protocol: as §3, §4

A375 = assay type: cell-based, human; conditions: 24 h
Protocol: as §3, §4

MM1S = assay type: cell-based, human; conditions: 24 h
Protocol: as §3, §4

DHL-6 = assay type: cell-based, human; conditions: 24 h
Protocol: as §3, §4

PC3 = assay type: cell-based, human; conditions: 24 h
Protocol: as §3, §4

Sequence of Bcl-xL (Q07817 whole entry, looked up): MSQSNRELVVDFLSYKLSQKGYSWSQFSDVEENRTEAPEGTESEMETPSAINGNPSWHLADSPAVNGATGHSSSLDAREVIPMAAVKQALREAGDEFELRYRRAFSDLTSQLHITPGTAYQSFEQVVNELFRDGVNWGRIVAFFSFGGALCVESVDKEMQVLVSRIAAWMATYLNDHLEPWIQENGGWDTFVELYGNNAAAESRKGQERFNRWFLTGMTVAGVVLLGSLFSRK

Row | Kd (Bcl-2) [µM] | Kd (Mcl-1) [µM] | Kd (Bcl-xL) [µM] | EC50 (RS4;11) [µM] | EC50 (MDA-MB231-Met) [nM] | EC50 (SEMK2) [µM] | EC50 (NCI-H82 (SCLC-MCL1+)) [nM] | EC50 (Raji) [µM] | EC50 (Molt-4) [µM] | EC50 (Jurkat) [µM] | EC50 (OVCAR8) [µM] | EC50 (A375) [µM] | EC50 (MM1S) [µM] | EC50 (DHL-6) [nM] | EC50 (PC3) [µM] | Compound
1 | > 10 | > 10 | > 10 | > 20 | > 20000 | > 20 | > 20000 | > 20 | > 20 | > 20 | > 20 | > 20 | > 20 | – | – | CCCC[C@H](NC(=O)C1(C)CCCC=CCCCC(C)(NC(=O)[C@H](C)NC(=O)[C@H](CC(C)C)NC(=O)[C@H](Cc2c[nH]cn2)NC(=O)[C@H](CCCNC(=N)N)NC(=O)[C@H](C)NC(=O)[C@@H](NC(=O)[C@H](CC(N)=O)NC(=O)[C@H](CCCNC(=N)N)NC(=O)[C@@H](NC(=O)[C@@H](NC(=O)[C@H](CC(=O)O)NC(C)=O)[C@@H](C)CC)[C@@H](C)CC)[C@@H](C)CC)C(=O)N[C@@H](C(C)C)C(=O)N[C@@H](CCC(=O)O)C(=O)N[C@@H](CC(=O)O)C(=O)N1)C(=O)N[C@@H](CC(=O)O)C(=O)N[C@@H](CCCNC(=N)N)C(=O)N[C@@H](CO)C(=O)N[C@H](C(N)=O)[C@@H](C)CC (some centres unmarked) [SP-2] (Ac-DIIRNIARHLA[ξαMeNle(6-ylidene)]VED[ξαMeNle(6-ylidene)][Nle]DRSI-NH2; staple 12-16)
2 | > 10 | 0.12 | 0.4 | > 20 | – | > 20 | – | > 20 | > 20 | > 20 | – | – | > 20 | > 20000 | – | CCCC[C@H](NC(=O)[C@H](CO)NC(=O)[C@H](CC(=O)O)NC(=O)CNC(=O)[C@@H](NC(=O)[C@H](CCC(N)=O)NC(=O)[C@H](C)NC(=O)[C@H](CC(C)C)NC(=O)[C@H](Cc1c[nH]cn1)NC(=O)[C@H](CCCNC(=N)N)NC(=O)[C@H](C)NC(=O)[C@@H](NC(=O)[C@H](CC(N)=O)NC(=O)[C@H](CCCNC(=N)N)NC(=O)[C@@H](NC(=O)[C@@H](NC(=O)[C@H](CC(=O)O)NC(C)=O)[C@@H](C)CC)[C@@H](C)CC)[C@@H](C)CC)C(C)C)C(=O)N[C@@H](CC(=O)O)C(=O)N[C@@H](CCCNC(=N)N)C(=O)N[C@@H](CO)C(=O)N[C@H](C(N)=O)[C@@H](C)CC [SP-3] (HELM PEPTIDE1{[ac].D.I.I.R.N.I.A.R.H.L.A.Q.V.G.D.S.[Nle].D.R.S.I.[am]}$$$$V2.0)
3 | > 10 | > 10 | > 10 | – | – | – | – | – | – | – | – | – | – | – | – | CC[C@H](C)[C@H](NC(C)=O)C(=O)N[C@@H](Cc1c[nH]c2ccccc12)C(=O)N[C@H](C(=O)N[C@@H](C)C(=O)N[C@@H](CCC(N)=O)C(=O)N[C@@H](CCC(=O)O)C(=O)N[C@@H](CC(C)C)C(=O)N[C@@H](CCCNC(=N)N)C(=O)NC1(C)CCCC=CCCCC(C)(C(=O)N[C@@H](Cc2ccccc2)C(=O)N[C@@H](CC(N)=O)C(=O)N[C@@H](C)C(=O)N[C@@H](Cc2ccc(O)cc2)C(=O)N[C@@H](Cc2ccc(O)cc2)C(=O)N[C@@H](C)C(=O)N[C@@H](CCCNC(=N)N)C(=O)N[C@@H](CCCNC(=N)N)C(N)=O)NC(=O)[C@H](CC(=O)O)NC(=O)[C@H](CCC(=O)O)NC(=O)[C@H]([C@@H](C)CC)NC1=O)[C@@H](C)CC (some centres unmarked) [SP-5] (Ac-IWIAQELR[ξαMeNle(6-ylidene)]IED[ξαMeNle(6-ylidene)]FNAYYARR-NH2; staple 9-13)
4 | 2.8 | < 0.1 | 0.25 | 3.7 | 2000 | 2.6 | 1200 | 2.7 | 1.6 | 0.9 | 3.2 | 4.3 | 1.9 | 900 | 4.6 | CC[C@H](C)[C@H](NC(C)=O)C(=O)N[C@@H](Cc1c[nH]c2ccccc12)C(=O)N[C@H](C(=O)N[C@@H](C)C(=O)N[C@@H](CCC(N)=O)C(=O)N[C@@H](C)C(=O)N[C@@H](CC(C)C)C(=O)N[C@@H](CCCNC(=N)N)C(=O)NC1(C)CCCC=CCCCC(C)(C(=O)N[C@@H](Cc2ccccc2)C(=O)N[C@@H](CC(N)=O)C(=O)N[C@@H](C)C(=O)N[C@@H](Cc2ccc(O)cc2)C(=O)N[C@@H](Cc2ccc(O)cc2)C(=O)N[C@@H](C)C(=O)N[C@@H](CCCNC(=N)N)C(=O)N[C@@H](CCCNC(=N)N)C(N)=O)NC(=O)[C@H](CC(=O)O)NC(=O)CNC(=O)[C@H]([C@@H](C)CC)NC1=O)[C@@H](C)CC (some centres unmarked) [SP-11] (Ac-IWIAQALR[ξαMeNle(6-ylidene)]IGD[ξαMeNle(6-ylidene)]FNAYYARR-NH2; staple 9-13)
